Where “and” joins values, the source holds several entries; their conditions need not be identical. Equal values may be shown once.

Broadly, the pKa is the negative logarithm of the acid dissociation constant. Higher therefore signals a weaker acid or stronger base.

A short description of data set [1]: Fluorescence emission spectra of rhodol dyes (uncorrected). The data set is classed as physicochemical. How it is done: Uncorrected fluorescence data was obtained on a Perkin-Elmer Model 650-40 Fluorescence Spectrophotometer equipped with a Perkin-Elmer/Hitachi 057 X-Y recorder using a ten- to twentyfold dilution of the absorbance solutions. Fluorescence of the rhodol dyes was determined for the reactive dyes and for their conjugates with model compounds by dissolving the dye at a concentration above 1×10^-8 M in an appropriate solvent such as water, methanol or chloroform, followed by measurement of the fluorescence in a suitable instrument, such as a fluorescence spectrometer or fluorescence microscope.

The nature of data set [2]: Quantum yield relative to fluorescein. The format is physicochemical. The note with it: aqueous 50 mM phosphate buffer at pH 8.0-9.0; uncorrected. The protocol: (§1) An estimate of the quantum yield of the dyes relative to fluorescein (quantum yield=0.92 in 0.01M sodium hydroxide) was obtained by integrating the emission spectrum of the dye excited at the same wavelength and optical density as the standard. Approximate photostabilities of the rhodol derivatives, relative to fluorescein, were determined by measuring the time dependent decrease in fluorescence intensity, during continuous illumination, of equimolar solutions of the rhodol dyes and fluorescein.

Data set [3] can be described thus: Photobleaching / photostability relative to fluorescein. The format is physicochemical. The note with it: continuous illumination; equimolar solutions; 50 mM potassium phosphate pH 8.0 (FIG. 3). How it is done:
as §1

Data set [4] is described as follows: Absorption spectra and extinction coefficients of rhodol dyes. The note with it: aqueous 50 mM phosphate buffer at pH 8.0-9.0. The format is physicochemical. How it is done: Stock solutions were prepared by accurately weighting and dissolving 5-10 mg samples of the compounds in 50 mM potassium phosphate buffer at pH 8.0. Absorbance solutions were prepared by further diluting the stock solution with 50 mM potassium phosphate buffer at pH 8.0.

A short description of data set [5]: pKa / pH dependence of absorption and emission. The data set is classed as physicochemical. How it is done:
| ^c In aqueous 50 mM phosphate buffer

A short description of data set [6]: Absorption spectra and extinction coefficients of rhodol dyes. The data set is classed as physicochemical. Particulars: in methanol.
For data set [7] the following is noted: background; cited from earlier work.
The conditions of data set [8]: background, cited from earlier work.
For data set [9] the following is noted: cited from earlier work.
For data set [10] the following is noted: background; cited from earlier work. This is another data set of the same source.
[11] abbreviates: aqueous 50 mM phosphate buffer at pH 8.0-9.0.

As for “5(and -6)-carboxy-3'-hydroxy-6'-amino-spiro[isobenzofuran-1(3H,9'-[9H]xanthen-3- one [Compound 1]”, the “Em Max” value in data set [1] (setting [11]) is 517 nm. Further, in data set [2], the “QY (quantum yield)” value was determined as 0.81. Besides, the “photostability / rate of photobleaching relative to fluorescein” value in data set [3] is reported as “superior photostability”. In data set [4], the “Abs Max” value came out at 492 nm and the ε (extinction coefficient) was determined as 59900 M⁻¹ cm⁻¹. Moreover, the pKa in data set [5] (aqueous 50 mM phosphate buffer) was 5.59. Besides, the “pH dependence of absorption and emission” value in [5] (aqueous solution, between pH 6 and 10, compared with fluorescein (FIG. 4)) is on record as “less significant pH dependence”.

In the case of “5-(and -6)-carboxy-2',7'-dimethyl-3'-hydroxy-6'-N-ethylamino-spiro[isobenzofuran- 1(3H),9'-[9H]xanthen-3-one [Compound 12]”, the “Em Max” value in [1] (setting [11]) was found to be 535 nm. Also, the “QY (quantum yield)” value in data set [2] is reported as 0.81. In [4], the “Abs Max” value was 510 nm and the ε (extinction coefficient) is 54800 M⁻¹ cm⁻¹. In [5] (aqueous 50 mM phosphate buffer), this molecule gave a pKa of 5.82.

In the case of `CCNc1cc2oc3cc(=O)c(CCC(=O)O)cc-3c(-c3ccccc3C(=O)O)c2cc1C` [Compound 17], the “Em Max” value in data set [1] (setting [11]) is reported as 534 nm. Moreover, the “QY (quantum yield)” value in data set [2] is 0.65. For the same molecule, in [4], the “Abs Max” value is 510 nm and the ε (extinction coefficient) worked out at 79400 M⁻¹ cm⁻¹. Further, the pKa in [5] (50 mm phosphate buffer) came to 5.91.

Regarding `O=C(O)c1ccc(C(=O)O)c(-c2c3cc(Cl)c(=O)cc-3oc3cc4c(cc23)CCCN4)c1` [Compound 24, 5-(and-6)-carboxy-2'-chloro-3'-hydroxy-1,2,3,4tetrahydropyridino[5,6-i]-spiro[isobenzofuran-1(3H),9'-[9H]xanthen-3-one], the “Em Max” value in [1] (setting [11]) is 546 nm. Besides, in data set [2], the “QY (quantum yield)” value was 0.37. The “Abs Max” value in [4] is listed as 524 nm. The same molecule had a pKa in data set [5] (50 mm phosphate buffer) of 4.50.

With `O=C(O)c1ccc(C(=O)O)c(-c2c3cc(Cl)c(=O)cc-3oc3c4c5c(cc23)CCCN5CCC4)c1` [Compound 28], in data set [1] (setting [11]), the “Em Max” value is given as 572 nm. Also, the “QY (quantum yield)” value in [2] was 0.31. Moreover, in data set [4], the “Abs Max” value turned out to be 547 nm and the ε (extinction coefficient) worked out at 74500 M⁻¹ cm⁻¹. Also, the pKa in [5] (50 mm phosphate buffer) turned out to be 5.11.

`NCCCCCNC(=O)c1ccc(C(=O)O)c(-c2c3cc(Cl)c(=O)cc-3oc3c4c5c(cc23)CCCN5CCC4)c1` [Compound 30]: the “Em Max” value in [1] (in methanol) is 567 nm. For the same molecule, the “Abs Max” value in [6] stood at 541 nm. Further, the ε (extinction coefficient) in data set [4] was found to be 57300 M⁻¹ cm⁻¹.

Consider `NCCNC(=O)c1ccc(C(=O)O)c(-c2c3cc(Cl)c(=O)cc-3oc3c4c5c(cc23)CCCN5CCC4)c1` [Compound 31], for which the “Em Max” value in data set [1] (in methanol) worked out at 568 nm. In [6], the “Abs Max” value was 540 nm.

Consider `CCCCCCCCCCCCCCCCc1cc2c(-c3cc(C(=O)O)ccc3C(=O)O)c3cc4c5c(c3oc-2cc1=O)CCCN5CCC4` [Compound 34], for which the “Em Max” value in [1] (setting [11]) is on record as 572 nm; in data set [1] (in methanol), 562 nm. Further, the “Abs Max” value in data set [6] was found to be 531 nm; in [4] it was 547 nm. The ε (extinction coefficient) in [6] came to 84400 M⁻¹ cm⁻¹.

Regarding `O=C(O)CCc1cc2c(cc1O)Oc1c(cc3c4c1CCCN4CCC3)C21OC(=O)c2ccccc21` (stereo not drawn) [Compound 39, 3'-hydroxy-2,3,6,7-tetrahydro-1H, 5H-quinolizino[1,9-hi]-spiro[isobenzofuran-1(3H),9'-[9H]xanthen-3-one-2'-(3-propionic acid)], the “Em Max” value in [1] (setting [11]) turned out to be 562 nm. Moreover, the “QY (quantum yield)” value in [2] was 0.41. In data set [4], the “Abs Max” value was 541 nm and the ε (extinction coefficient) came out at 58200 M⁻¹ cm⁻¹. Moreover, in data set [5] (50 mm phosphate buffer), the pKa was 6.63.

`C=CC(=O)NCCCCCNC(=O)CCc1cc2c(-c3ccccc3C(=O)O)c3cc4c5c(c3oc-2cc1=O)CCCN5CCC4` [Compound 42]: the “Em Max” value in data set [1] (setting [11]) was 571 nm. Also, the “Abs Max” value in [4] is 544 nm.

In the case of `[N-]=[N+]=Nc1ccc(C(=O)NCCCCCNC(=O)CCc2cc3c(cc2O)Oc2c(cc4c5c2CCCN5CCC4)C32OC(=O)c3ccccc32)cc1` (stereo not drawn) [Compound 43], in data set [1] (setting [11]), the “Em Max” value was determined as 572 nm. For the same molecule, the “Abs Max” value in data set [4] was determined as 545 nm.

On to `O=C(CI)NCCCCCNC(=O)CCc1cc2c(-c3ccccc3C(=O)O)c3cc4c5c(c3oc-2cc1=O)CCCN5CCC4` [Compound 44], for which the “Em Max” value in data set [1] (setting [11]) amounted to 572 nm. Moreover, in data set [4], the “Abs Max” value came to 544 nm.

For the molecule `O=C(CCc1cc2c(-c3ccccc3C(=O)O)c3cc4c5c(c3oc-2cc1=O)CCCN5CCC4)NCCCCCNC(=O)CN1C(=O)C=CC1=O` [Compound 45], the “Em Max” value in data set [1] (setting [11]) is 573 nm. Further, the “Abs Max” value in data set [4] came to 544 nm.

Turning to `NNC(=O)CCc1cc2c(-c3ccccc3C(=O)O)c3cc4c5c(c3oc-2cc1=O)CCCN5CCC4` [Compound 49], in data set [1] (setting [11]), the “Em Max” value turned out to be 573 nm. Also, the “Abs Max” value in data set [4] is given as 542 nm.

`NCCCCCNC(=O)CCc1cc2c(cc1O)Oc1c(cc3c4c1CCCN4CCC3)C21OC(=O)c2ccccc21` (stereo not drawn) [Compound 50]: the “Em Max” value in [1] (setting [11]) is recorded as 572 nm. Further, the “Abs Max” value in data set [4] came out at 543 nm.

Consider `O=c1cc2oc3c4c5c(cc3c(CCl)c-2cc1Cl)CCCN5CCC4` [Compound 51], for which the “Em Max” value in [1] (in methanol) was 578 nm. Further, the “Abs Max” value in data set [6] is recorded as 563 nm.

For the molecule `CCc1cc2c(C(=O)O)c3cc4c5c(c3oc-2cc1=O)CCCN5CCC4` [Compound 52], the “Em Max” value in data set [1] (setting [11]) worked out at 603 nm. The “Abs Max” value in data set [4] was 558 nm.

On to `O=C(O)CCc1cc2cc3cc4c5c(c3oc-2cc1=O)CCCN5CCC4` [Compound 54], for which the results for the “Em Max” value in [1] (setting [11]) and in data set [1] (in methanol) were 562 nm and 555 nm, respectively. Further, in [2], the “QY (quantum yield)” value turned out to be 0.44. The “Abs Max” value in data set [6] amounted to 531 nm; in data set [4], 538 nm. Further, the ε (extinction coefficient) was determined as 81400 M⁻¹ cm⁻¹ in data set [6] and 69500 M⁻¹ cm⁻¹ in data set [4].

`O=C(O)CCCCc1cc2cc3cc4c5c(c3oc-2cc1=O)CCCN5CCC4` [Compound 55]: the entries for the “Em Max” value in data set [1] (setting [11]) and in data set [1] (in methanol) were 562 nm and 556 nm, respectively. Also, the entries for the “Abs Max” value in data set [6] and in [4] were 532 nm and 538 nm, respectively. Besides, the ε (extinction coefficient) in data set [6] turned out to be 88700 M⁻¹ cm⁻¹; in [4], 64100 M⁻¹ cm⁻¹.

Take `O=C(O)CCCCCCCCCCCc1cc2cc3cc4c5c(c3oc-2cc1=O)CCCN5CCC4` [Compound 56]: the “Em Max” value in [1] (in methanol) stood at 556 nm. In addition, in data set [6], the “Abs Max” value is listed as 532 nm and the ε (extinction coefficient) was determined as 84400 M⁻¹ cm⁻¹.

Regarding `O=C(O)CCc1cc2c(C(F)(F)F)c3cc4c5c(c3oc-2cc1=O)CCCN5CCC4` [Compound 57], the figures for the “Em Max” value in data set [1] (setting [11]) and in data set [1] (in methanol) were 635 nm and 633 nm, respectively. Further, the “Abs Max” value in data set [6] turned out to be 593 nm; in data set [4] it was 602 nm.

For `N#Cc1c2cc(CCC(=O)O)c(=O)cc-2oc2c3c4c(cc12)CCCN4CCC3` [Compound 58], the “Em Max” value in data set [1] (setting [11]) came out at 664 nm. In addition, the “Abs Max” value in [4] was found to be 640 nm.

Turning to `O=C1OC2(c3ccc(O)cc3Oc3cc(O)ccc32)c2ccccc21` [Fluorescein], the “Em Max” value in data set [1] (setting [11]) was 514 nm. Besides, in data set [2], the “QY (quantum yield)” value is listed as 0.92. In [7], the pH sensitivity result was “pH dependent absorption spectrum”. Besides, the “absorption intensity at 514 nm relative to maximum at 492 nm” value in [8] (514 nm) is “less than 10%”. The absorptivity at peak in data set [8] (at absorption peak) is on record as 75,000 cm^-1 M^-1. In addition, in data set [8], the absorption maximum was 492 nm and ~490 nm. For the same molecule, in [4], the “Abs Max” value stood at 490 nm and the ε (extinction coefficient) worked out at 75000 M⁻¹ cm⁻¹. The “quantum yield of the standard” value in data set [9] (in 0.01M sodium hydroxide) was 0.92. In data set [5] (aqueous 50 mM phosphate buffer), this molecule yielded a pKa of 6.4.

Regarding `CN(C)c1ccc2c(-c3ccccc3C(=O)[O-])c3ccc(N(C)C)cc3[o+]c2c1` [Tetramethylrhodamine], in data set [10], the photostability result is given as “relatively photostable”. Also, in data set [7], the pH sensitivity entry is “pH insensitive”. For the same molecule, the “quantum yield in alcohol” value in data set [9] (background, in alcohol) was “above 0.90”. Further, the “quantum yield in water” value in [9] (background, in water) is “approximately 0.23”.

Carboxyfluorescein [reference compound]: the “Em Max” value in [1] (setting [11]) is reported as 514 nm. For the same molecule, the “QY (quantum yield)” value in data set [2] was determined as 0.78. Further, in [4], the “Abs Max” value is 491 nm and the ε (extinction coefficient) came out at 75000 M⁻¹ cm⁻¹. This molecule also had a pKa in [5] (50 mm phosphate buffer) of 6.4.

With “Carboxytetramethylrhodamine [reference compound]”, the “Em Max” value in [1] (setting [11]) turned out to be 574 nm. Also, in data set [2], the “QY (quantum yield)” value was 0.23. Moreover, in data set [4], the “Abs Max” value is 547 nm and the ε (extinction coefficient) is 77000 M⁻¹ cm⁻¹.

Values taken from US5227487A, “Certain tricyclic and pentacyclic-hetero nitrogen rhodol dyes” (Molecular Probes, Inc., priority 1990, dated 1993).
